Reference: the supplement of paper PMC8967900

Experiments:
Experiment in all cases: selective drug sensitivity score (sDSS, relative to normal bone marrow) (sDSS (score)); higher = more potent and effective on the cell line relative to normal bone marrow cells
Conditions in all cases: 72 h
[1] = tested on: ALL-PO
[2] = tested on: KASUMI-9
[3] = tested on: MOLT-14
[4] = tested on: 380
[5] = tested on: P12-ICHIKAWA
[6] = tested on: JURKAT
[7] = tested on: DND-41
[8] = tested on: TANOUE
[9] = tested on: SUP-B15
[10] = tested on: HAL-01
[11] = tested on: NALM-16
[12] = tested on: COG-LL-402h
[13] = tested on: MN-60
[14] = tested on: 697
[15] = tested on: REH
[16] = tested on: NALL-1
[17] = tested on: KOPN-8
[18] = tested on: COG-LL-355h
[19] = tested on: COG-LL-394h
[20] = tested on: LC4-1
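Also: ALL cell lines in 384-well plates, five doses spanning 10,000-fold, each plate scaled between vehicle and 100 µmol/L benzalkonium chloride controls, sDSS an adapted area-under-curve metric.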

| SMILES | selective drug sensitivity score [1] | selective drug sensitivity score [2] | selective drug sensitivity score [3] | selective drug sensitivity score [4] | selective drug sensitivity score [5] | selective drug sensitivity score [6] | selective drug sensitivity score [7] | selective drug sensitivity score [8] | selective drug sensitivity score [9] | selective drug sensitivity score [10] | selective drug sensitivity score [11] | selective drug sensitivity score [12] | selective drug sensitivity score [13] | selective drug sensitivity score [14] | selective drug sensitivity score [15] | selective drug sensitivity score [16] | selective drug sensitivity score [17] | selective drug sensitivity score [18] | selective drug sensitivity score [19] | selective drug sensitivity score [20] |
| --- | --- | --- | --- | --- | --- | --- | --- | --- | --- | --- | --- | --- | --- | --- | --- | --- | --- | --- | --- | --- |
| CC(C)Oc1ccc(C(=O)N[C@H](CNC(=O)CN(C)C)Cc2ccc(-c3cn4cccc([C@H](C)O)c4n3)cc2)cc1Cl (top concentration 10000 nM) | 6.88 | 10.3 | 17.4 | 10.7 | 7.28 | 13.6 | -2.62 | -9.32 | 14.8 | 1.98 | 1.68 | 10.6 | -1.62 | 19.9 | 12.1 | 9.88 | 14.2 | -2.62 | -0.72 | 8.28 |
| CCn1c(-c2nonc2N)nc2cnc(Oc3cccc(NC(=O)c4ccc(OCCN5CCOCC5)cc4)c3)cc21 (top concentration 10000 nM) | -2.14 | 11.6 | 2.46 | 7.46 | 17.1 | 3.76 | 0.86 | -5.44 | 19.3 | 9.96 | -5.44 | 7.66 | -3.54 | 18.3 | 4.56 | 8.46 | 11.3 | -2.34 | 1.56 | 17 |
| CC(C)(C#N)c1cc(Cn2cncn2)cc(C(C)(C)C#N)c1 [Anastrozole] (top concentration 10000 nM) | 0 | 0 | 0 | 0 | 0 | 0 | 2.9 | 0 | 0 | 0 | 0 | 0 | 0 | 0 | 0 | 0 | 0 | 0 | 0 | 0 |
| Cc1sc2c(c1C)C(c1ccc(Cl)cc1)=N[C@@H](CC(=O)Nc1ccc(O)cc1)c1nnc(C)n1-2 [Birabresib] (top concentration 10000 nM) | 5.22 | 13.1 | 1.72 | -9.68 | 5.22 | -1.98 | 0.92 | -4.78 | 3.42 | -0.78 | 1.52 | 7.12 | 6.72 | 10.6 | -3.18 | -3.58 | 11.6 | 2.42 | -0.08 | 4.92 |
| Nc1ccn([C@@H]2O[C@H](CO)[C@@H](O)[C@@H]2O)c(=O)n1 [Cytarabine] (top concentration 10000 nM) | 8.6 | 22.7 | 25.6 | 22.2 | 24.5 | 17.9 | 16.3 | -8.9 | 27.7 | 21.8 | 8.8 | 26.9 | 1.3 | 27.7 | 21.8 | 10.6 | 20.9 | 4.9 | -10 | 21 |
| COc1cccc2c1C(=O)c1c(O)c3c(c(O)c1C2=O)C[C@@](O)(C(C)=O)C[C@@H]3O[C@H]1C[C@H](N)[C@H](O)[C@H](C)O1 [Daunorubicin] (top concentration 1000 nM) | -0.34 | 7.06 | 9.66 | 13.7 | 6.96 | 2.96 | -0.54 | -9.54 | 11.9 | -2.24 | -2.14 | 15.8 | -0.34 | 9.06 | 6.16 | -4.04 | 6.56 | 5.06 | 8.66 | 6.36 |
| Nc1ncn([C@H]2C[C@H](O)[C@@H](CO)O2)c(=O)n1 [Decitabine] (top concentration 10000 nM) | 4.54 | -0.16 | 0.44 | 9.14 | 1.14 | 4.04 | -4.66 | -6.06 | 16.5 | -1.76 | -2.96 | 3.34 | -5.86 | 17.5 | 3.94 | -5.96 | 10.2 | -0.96 | -6.06 | -0.06 |
| CCN(CC)C(=S)SSC(=S)N(CC)CC [Disulfiram(+CuCl2)] (top concentration 50000 nM) | -2.12 | 2.28 | -2.02 | 1.58 | -2.12 | -2.12 | -2.12 | -1.62 | 10.7 | 16.3 | -2.12 | -0.32 | -2.12 | -1.02 | -0.32 | 16.1 | 15.8 | 1.48 | -1.02 | 7.38 |
| Nc1nc(F)nc2c1ncn2[C@@H]1O[C@H](CO)[C@@H](O)[C@@H]1O [Fludarabine] (top concentration 10000 nM) | 1.6 | 6 | 4.3 | 6.9 | -5.5 | -5.5 | 5.5 | -10.3 | 9.4 | 4 | -6 | 8 | -4.5 | 7.3 | -1.3 | 2.3 | 8.4 | 5.1 | -10.6 | 6 |
| Nc1nc(OCc2cc(Br)cs2)c2[nH]cnc2n1 [Lomeguatrib] (top concentration 10000 nM) | 0.5 | 0 | 0 | 0 | 0 | 0 | 0 | 0 | 0 | 0 | 0 | 0 | 0 | 0.4 | 1.2 | 0 | 0 | 1 | 0 | 0.8 |
| Cc1cc(OCc2nnc(SC3CCCC3)n2-c2cccnc2)ccc1-c1ccc(S(C)(=O)=O)cc1 [NMS-873] (top concentration 10000 nM) | 4.36 | 1.26 | 7.16 | -4.24 | 19.9 | 26.5 | 4.46 | 19.4 | 10.6 | 1.06 | 2.86 | 2.56 | 12.1 | 14.1 | 12 | 3.26 | 4.06 | 4.56 | 14.6 | 4.76 |
| COC(=O)c1ccc2c(c1)NC(=O)/C2=C(\Nc1ccc(N(C)C(=O)CN2CCN(C)CC2)cc1)c1ccccc1 [Nintedanib] (top concentration 10000 nM) | 11.1 | -1.26 | 1.64 | -4.56 | -2.96 | -4.86 | -3.16 | -6.36 | 9.44 | 3.34 | -1.76 | 5.14 | -6.36 | 0.84 | -5.16 | -2.76 | -5.26 | -0.16 | 2.14 | -4.36 |
| O=C(c1cc(Cc2n[nH]c(=O)c3ccccc23)ccc1F)N1CCN(C(=O)C2CC2)CC1 [Olaparib] (top concentration 10000 nM) | -0.12 | 4.98 | 10.4 | 26.8 | -0.82 | 1.58 | 1.28 | -3.42 | 13.1 | 4.88 | -3.42 | 4.38 | -2.42 | 6.78 | 1.48 | 1.28 | 9.68 | 3.38 | -1.32 | 2.68 |
| O=C(O)C(=O)O.[NH-][C@@H]1CCCC[C@H]1[NH-].[Pt+2] [Oxaliplatin] (top concentration 100000 nM) | -0.78 | 13.6 | 9.22 | 10.6 | 8.32 | 5.52 | 1.42 | -6.98 | 16.6 | 15.3 | -1.48 | 12.9 | -0.38 | 16 | 10 | 2.92 | 16.9 | 4.92 | 8.32 | 10.6 |
| CS(=O)(=O)N1CCN(Cc2cc3nc(-c4cccc5[nH]ncc45)nc(N4CCOCC4)c3s2)CC1 [Pictilisib] (top concentration 10000 nM) | 14.6 | 10.1 | -2.04 | 16.4 | 1.16 | 0.36 | -1.44 | -5.84 | 0.16 | 14.4 | 4.66 | 12.9 | 2.96 | 7.36 | 10.5 | -0.64 | 14.8 | 12 | -0.74 | 0.16 |
| CCOC(=O)C1=CCCC[C@H]1S(=O)(=O)Nc1ccc(F)cc1Cl [Resatorvid] (top concentration 10000 nM) | 0 | 0 | 0 | 0 | 0 | 0 | 0 | 0 | 0 | 0 | 0 | 0.4 | 0 | 0 | 0 | 0 | 0.2 | 0 | 0 | 0 |
| CO[C@H]1C[C@@H]2CC[C@@H](C)[C@@](O)(O2)C(=O)C(=O)N2CCCC[C@H]2C(=O)O[C@H]([C@H](C)C[C@@H]2CC[C@@H](OP(C)(C)=O)[C@H](OC)C2)CC(=O)[C@H](C)/C=C(\C)[C@@H](O)[C@@H](OC)C(=O)[C@H](C)C[C@H](C)/C=C/C=C/C=C/1C [Ridaforolimus] (top concentration 100 nM) | 2.66 | 6.96 | -2.44 | 24.5 | -0.94 | 0.26 | -2.54 | -4.84 | 8.96 | -4.34 | -0.04 | 4.66 | 5.16 | 12.5 | 6.96 | -4.44 | 22.2 | -2.14 | -4.84 | 4.46 |
